Experimental data: the supplement of paper PMC10307832

Key:
Test in all cases: relative viability (nuclei count vs DMSO), 5 days (fraction); higher = more cells survive
Idelalisib + Palbociclib = compound: CC[C@H](Nc1ncnc2[nH]cnc12)c1nc2cccc(F)c2c(=O)n1-c1ccccc1 [Idelalisib] + CC(=O)c1c(C)c2cnc(Nc3ccc(N4CCNCC4)cn3)nc2n(C2CCCC2)c1=O [Palbociclib] (partner 0.5 µM)
Outline: (§1)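 Relative viability is defined as nuclei in treated wells over nuclei in vehicle wells. Duplicate plates were run and medians reported. Lung cancer cell lines in 1536-well plates were dosed by pin tool one day after seeding, with one drug or with a fixed anchor-drug dose plus five library-drug doses (not always all listed) in √10 steps, and nuclei were counted after 5 days.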

Pemetrexed + Linsitinib = compound: Nc1nc2[nH]cc(CCc3ccc(C(=O)N[C@@H](CCC(=O)O)C(=O)O)cc3)c2c(=O)[nH]1 [Pemetrexed] + C[C@]1(O)C[C@@H](c2nc(-c3ccc4ccc(-c5ccccc5)nc4c3)c3c(N)nccn32)C1 [Linsitinib] (partner 1 µM)
Outline: as §1

Pemetrexed + Bortezomib = compound: Nc1nc2[nH]cc(CCc3ccc(C(=O)N[C@@H](CCC(=O)O)C(=O)O)cc3)c2c(=O)[nH]1 [Pemetrexed] + CC(C)C[C@H](NC(=O)[C@H](Cc1ccccc1)NC(=O)c1cnccn1)B(O)O [Bortezomib] (partner 0.002 µM)
Outline: as §1

Idelalisib = compound: CC[C@H](Nc1ncnc2[nH]cnc12)c1nc2cccc(F)c2c(=O)n1-c1ccccc1 [Idelalisib]
Outline: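 Lung cancer cell lines in 1536-well plates were exposed by pinning to five library-drug doses (not always all listed) √10 apart, following an overnight hold at 37 °C. MetaXpress counted Hoechst-stained nuclei from 4× images taken after 5 days without medium change. Viability is the median ratio of treated-well to vehicle-well nuclei across plates. Plates required control CV below 25% and at least one doubling.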

HCC-44
relative viability (Idelalisib + Palbociclib; first compound 0.04 µM): 1.02 | relative viability (Idelalisib + Palbociclib; first compound 0.1265 µM): 0.887 | relative viability (Idelalisib + Palbociclib; first compound 0.4 µM): 0.984 | relative viability (Idelalisib + Palbociclib; first compound 1.265 µM): 1.04 | relative viability (Idelalisib + Palbociclib; first compound 4 µM): 0.96 | relative viability (Pemetrexed + Linsitinib; first compound 0.002 µM): 0.598 | relative viability (Pemetrexed + Linsitinib; first compound 0.006325 µM): 0.625 | relative viability (Pemetrexed + Linsitinib; first compound 0.02 µM): 0.73 | relative viability (Pemetrexed + Linsitinib; first compound 0.06325 µM): 0.665 | relative viability (Pemetrexed + Linsitinib; first compound 0.2 µM): 0.536 | relative viability (Pemetrexed + Bortezomib; first compound 0.002 µM): 0.859 | relative viability (Pemetrexed + Bortezomib; first compound 0.006325 µM): 0.934 | relative viability (Pemetrexed + Bortezomib; first compound 0.02 µM): 1.03 | relative viability (Pemetrexed + Bortezomib; first compound 0.06325 µM): 0.888 | relative viability (Pemetrexed + Bortezomib; first compound 0.2 µM): 0.681 | relative viability (Idelalisib; 0.04 µM): 1.04 | relative viability (Idelalisib; 0.1265 µM): 0.953 | relative viability (Idelalisib; 0.4 µM): 0.98 | relative viability (Idelalisib; 1.265 µM): 1.08 | relative viability (Idelalisib; 4 µM): 1.13

A-427
relative viability (Idelalisib + Palbociclib; first compound 0.04 µM): 0.558 | relative viability (Idelalisib + Palbociclib; first compound 0.1265 µM): 0.542 | relative viability (Idelalisib + Palbociclib; first compound 0.4 µM): 0.491 | relative viability (Idelalisib + Palbociclib; first compound 1.265 µM): 0.559 | relative viability (Idelalisib + Palbociclib; first compound 4 µM): 0.505 | relative viability (Pemetrexed + Linsitinib; first compound 0.002 µM): 1.02 | relative viability (Pemetrexed + Linsitinib; first compound 0.006325 µM): 1.09 | relative viability (Pemetrexed + Linsitinib; first compound 0.02 µM): 1.08 | relative viability (Pemetrexed + Linsitinib; first compound 0.06325 µM): 1.13 | relative viability (Pemetrexed + Linsitinib; first compound 0.2 µM): 1.1 | relative viability (Pemetrexed + Bortezomib; first compound 0.002 µM): 0.929 | relative viability (Pemetrexed + Bortezomib; first compound 0.006325 µM): 1.06 | relative viability (Pemetrexed + Bortezomib; first compound 0.02 µM): 1.04 | relative viability (Pemetrexed + Bortezomib; first compound 0.06325 µM): 0.96 | relative viability (Pemetrexed + Bortezomib; first compound 0.2 µM): 1.06 | relative viability (Idelalisib; 0.04 µM): 1.14 | relative viability (Idelalisib; 0.1265 µM): 1.01 | relative viability (Idelalisib; 0.4 µM): 0.883 | relative viability (Idelalisib; 1.265 µM): 1.01 | relative viability (Idelalisib; 4 µM): 0.904

NCI-H520
relative viability (Idelalisib + Palbociclib; first compound 0.04 µM): 0.24 | relative viability (Idelalisib + Palbociclib; first compound 0.1265 µM): 0.184 | relative viability (Idelalisib + Palbociclib; first compound 0.4 µM): 0.193 | relative viability (Idelalisib + Palbociclib; first compound 1.265 µM): 0.185 | relative viability (Idelalisib + Palbociclib; first compound 4 µM): 0.156 | relative viability (Pemetrexed + Linsitinib; first compound 0.002 µM): 0.946 | relative viability (Pemetrexed + Linsitinib; first compound 0.006325 µM): 0.911 | relative viability (Pemetrexed + Linsitinib; first compound 0.02 µM): 0.926 | relative viability (Pemetrexed + Linsitinib; first compound 0.06325 µM): 1.09 | relative viability (Pemetrexed + Linsitinib; first compound 0.2 µM): 0.956 | relative viability (Pemetrexed + Bortezomib; first compound 0.002 µM): 0.29 | relative viability (Pemetrexed + Bortezomib; first compound 0.006325 µM): 0.64 | relative viability (Pemetrexed + Bortezomib; first compound 0.02 µM): 0.542 | relative viability (Pemetrexed + Bortezomib; first compound 0.06325 µM): 0.526 | relative viability (Pemetrexed + Bortezomib; first compound 0.2 µM): 0.395 | relative viability (Idelalisib; 0.04 µM): 0.958 | relative viability (Idelalisib; 0.1265 µM): 0.987 | relative viability (Idelalisib; 0.4 µM): 0.84 | relative viability (Idelalisib; 1.265 µM): 0.922 | relative viability (Idelalisib; 4 µM): 0.79

LXF-289
relative viability (Idelalisib + Palbociclib; first compound 0.04 µM): 0.592 | relative viability (Idelalisib + Palbociclib; first compound 0.1265 µM): 0.667 | relative viability (Idelalisib + Palbociclib; first compound 0.4 µM): 0.601 | relative viability (Idelalisib + Palbociclib; first compound 1.265 µM): 0.687 | relative viability (Idelalisib + Palbociclib; first compound 4 µM): 0.627 | relative viability (Pemetrexed + Linsitinib; first compound 0.002 µM): 0.917 | relative viability (Pemetrexed + Linsitinib; first compound 0.006325 µM): 0.994 | relative viability (Pemetrexed + Linsitinib; first compound 0.02 µM): 0.976 | relative viability (Pemetrexed + Linsitinib; first compound 0.06325 µM): 0.955 | relative viability (Pemetrexed + Linsitinib; first compound 0.2 µM): 0.931 | relative viability (Pemetrexed + Bortezomib; first compound 0.002 µM): 0.987 | relative viability (Pemetrexed + Bortezomib; first compound 0.006325 µM): 0.993 | relative viability (Pemetrexed + Bortezomib; first compound 0.02 µM): 1.08 | relative viability (Pemetrexed + Bortezomib; first compound 0.06325 µM): 0.976 | relative viability (Pemetrexed + Bortezomib; first compound 0.2 µM): 0.943 | relative viability (Idelalisib; 0.04 µM): 1.05 | relative viability (Idelalisib; 0.1265 µM): 1.07 | relative viability (Idelalisib; 0.4 µM): 1 | relative viability (Idelalisib; 1.265 µM): 1.07 | relative viability (Idelalisib; 4 µM): 1.04

NCI-H2087
relative viability (Idelalisib + Palbociclib; first compound 0.04 µM): 0.216 | relative viability (Idelalisib + Palbociclib; first compound 0.1265 µM): 0.173 | relative viability (Idelalisib + Palbociclib; first compound 0.4 µM): 0.15 | relative viability (Idelalisib + Palbociclib; first compound 1.265 µM): 0.223 | relative viability (Idelalisib + Palbociclib; first compound 4 µM): 0.169 | relative viability (Pemetrexed + Linsitinib; first compound 0.002 µM): 0.886 | relative viability (Pemetrexed + Linsitinib; first compound 0.006325 µM): 0.889 | relative viability (Pemetrexed + Linsitinib; first compound 0.02 µM): 1.02 | relative viability (Pemetrexed + Linsitinib; first compound 0.06325 µM): 0.767 | relative viability (Pemetrexed + Linsitinib; first compound 0.2 µM): 0.635 | relative viability (Pemetrexed + Bortezomib; first compound 0.002 µM): 0.834 | relative viability (Pemetrexed + Bortezomib; first compound 0.006325 µM): 0.639 | relative viability (Pemetrexed + Bortezomib; first compound 0.02 µM): 0.919 | relative viability (Pemetrexed + Bortezomib; first compound 0.06325 µM): 1.04 | relative viability (Pemetrexed + Bortezomib; first compound 0.2 µM): 0.523 | relative viability (Idelalisib; 0.04 µM): 1.09 | relative viability (Idelalisib; 0.1265 µM): 1.13 | relative viability (Idelalisib; 0.4 µM): 0.868 | relative viability (Idelalisib; 1.265 µM): 1.12 | relative viability (Idelalisib; 4 µM): 0.749

CAL-12T
relative viability (Idelalisib + Palbociclib; first compound 0.04 µM): 0.836 | relative viability (Idelalisib + Palbociclib; first compound 0.1265 µM): 0.525 | relative viability (Idelalisib + Palbociclib; first compound 0.4 µM): 0.448 | relative viability (Idelalisib + Palbociclib; first compound 1.265 µM): 0.615 | relative viability (Idelalisib + Palbociclib; first compound 4 µM): 0.414 | relative viability (Pemetrexed + Linsitinib; first compound 0.002 µM): 0.776 | relative viability (Pemetrexed + Linsitinib; first compound 0.006325 µM): 0.744 | relative viability (Pemetrexed + Linsitinib; first compound 0.02 µM): 0.932 | relative viability (Pemetrexed + Linsitinib; first compound 0.06325 µM): 0.996 | relative viability (Pemetrexed + Linsitinib; first compound 0.2 µM): 0.782 | relative viability (Pemetrexed + Bortezomib; first compound 0.002 µM): 0.812 | relative viability (Pemetrexed + Bortezomib; first compound 0.006325 µM): 0.935 | relative viability (Pemetrexed + Bortezomib; first compound 0.02 µM): 1.16 | relative viability (Pemetrexed + Bortezomib; first compound 0.06325 µM): 0.9 | relative viability (Pemetrexed + Bortezomib; first compound 0.2 µM): 0.939 | relative viability (Idelalisib; 0.04 µM): 1.1 | relative viability (Idelalisib; 0.1265 µM): 1.08 | relative viability (Idelalisib; 0.4 µM): 1.01 | relative viability (Idelalisib; 1.265 µM): 1.11 | relative viability (Idelalisib; 4 µM): 1.08

PC-14
relative viability (Idelalisib + Palbociclib; first compound 0.04 µM): 0.539 | relative viability (Idelalisib + Palbociclib; first compound 0.1265 µM): 0.511 | relative viability (Idelalisib + Palbociclib; first compound 0.4 µM): 0.439 | relative viability (Idelalisib + Palbociclib; first compound 1.265 µM): 0.561 | relative viability (Idelalisib + Palbociclib; first compound 4 µM): 0.415 | relative viability (Pemetrexed + Linsitinib; first compound 0.002 µM): 0.922 | relative viability (Pemetrexed + Linsitinib; first compound 0.006325 µM): 0.901 | relative viability (Pemetrexed + Linsitinib; first compound 0.02 µM): 1.01 | relative viability (Pemetrexed + Linsitinib; first compound 0.06325 µM): 0.759 | relative viability (Pemetrexed + Linsitinib; first compound 0.2 µM): 0.184 | relative viability (Pemetrexed + Bortezomib; first compound 0.002 µM): 0.873 | relative viability (Pemetrexed + Bortezomib; first compound 0.006325 µM): 0.85 | relative viability (Pemetrexed + Bortezomib; first compound 0.02 µM): 0.808 | relative viability (Pemetrexed + Bortezomib; first compound 0.06325 µM): 0.544 | relative viability (Pemetrexed + Bortezomib; first compound 0.2 µM): 0.188 | relative viability (Idelalisib; 0.04 µM): 1.07 | relative viability (Idelalisib; 0.1265 µM): 1.05 | relative viability (Idelalisib; 0.4 µM): 0.951 | relative viability (Idelalisib; 1.265 µM): 0.922 | relative viability (Idelalisib; 4 µM): 0.959
